# Assay results taken from patent US10610517B2, “Compositions and methods for treating neoplastic diseases” (Celgene International II Sàrl, priority 2004, dated 2020).
# pIC50: −log10 of the molar value.
# Tests used:
# [1] = system: MM.1S, MM.1R, RPMI-8226, Dox-40, OPM2 and U266 cells; test: MTT cell viability of MM cell lines; type: cell-based, human; details: 24 h, range over all six cell lines; FIG. 5A
# From the text: Results are mean±S.D from three independent experiments (P<0.005; n=3 for all Cell lines).
# patient MM-derived BMSCs = test: DNA fragmentation apoptosis assay on bone marrow stromal cells; type: cell-based, human; details: 20 nM, 24 h, BMSCs Patient #1-5; FIG. 6
# MM.1S cells [2] = test: MTT viability of MM.1S cells with or without rhIL-6 or rhIGF-I; type: cell-based, human
# From the text: Adhesion of MM cells to BMSCs induces IL-6 and IGF-I secretion from BMSCs, which not only regulates the growth of MM cells, but also protects against chemotherapy. See Hardin, J., MacLeod, S., Grigorieva, I., Chang, R., Barlogie, B., Xiao, H. & Epstein, J. (1994) Blood 84, 3063-70 and Chauhan, D., Kharbanda, S., Ogata, A., Urashima, M., Teoh, G., Robertson, M., Kufe, D. W. & Anderson, K. C. […] Thus, whether rhIL-6 or rhIGF-I inhibits apoptosis in MM cells induced by the compound of Formula (II) (X=Cl) was evaluated. […] At 24 h cells were harvested and viability analyzed by MTT assays. […] Median viability was 51±2.1% after treatment with Dex and 92±5.5% for Dex+rhIL-6 (P=0.05, as determined by one-sided Wilcoxon rank-sum test). Results are mean±SD of three independent experiments. […] In contrast and as in other studies, both IL-6 and IGF-I block Dex-induced decreased MM.1S cell viability. See Chauhan, D., Hideshima, T. & Anderson, K. C. (2003) Int J Hematol 78, 114-20 and Mitsiades, C. S., Mitsiades, N., Poulaki, V., Schlossman, R., Akiyama, M., Chauhan, D., Hideshima, T., Treon, S. P., Munshi, N. C., Richardson, P. G. & Anderson, K. C.
# [3] = system: Bcl2-transfected MM.1S cells; test: MTT viability of Bcl2-transfected MM.1S cells
# Method: Bcl2 confers resistance to conventional therapies in cancer cells, including MM. […] Bcl2 can modestly attenuate Bortezomib-induced apoptosis. Thus, whether ectopic expression of Bcl2 in MM.1S cells affects responsiveness to the compound of formula (II) (X=Cl) was evaluated. MM.1S cells were stably transfected with Bcl2 construct and analyzed for alterations in cell viability using an MTT assay. […] Results are mean±SD of three independent experiments.
# During apoptosis Bax neutralizes the antiapoptotic function of Bcl-2, thereby facilitating the cyto-c release and caspase-9 activation. Bcl-2 also confers drug resistance in cancer cells, including MM, and provides partial protection against Bortezomib-induced killing. Therefore, whether ectopic expression of Bcl-2 in MM.1S cells affects the ability of the compound of formula (II) or Bortezomib to trigger cytotoxicity and postmitochondrial apoptotic signaling in MM cells was evaluated.
# MM.1S cells [4] = test: Mitochondrial and caspase apoptotic signaling in MM cells (flow cytometry, immunoblot); type: cell-based, human; details: 7 nM
# Method: Mitochondria play a critical role in apoptosis induction during stress. See Bossy-Wetzel, E. & Green, D. R. (1999) Mutat Res 434, 243-51 and Chauhan, D. & Anderson, K. C. […] Superoxide (O2^−) production was measured by staining cells with membrane permeable dye dihydroethidium (HE) for the last 15 min. Superoxide anions oxidize HE to fluorescent ethidium, permitting analysis by flow cytometry.
# Reprobing the immunoblots with anti-Hsp60 (lower, left panel) and anti-tubulin (lower, right panel) Abs confirms purity of mitochondrial extracts and equal protein loading. Release of mitochondrial apoptogenic proteins cyto-c and Smac/DIABLO induce activation of caspases-9 and -3. […] As a control for equal loading of proteins and purity of mitochondrial fractions, filters were also reprobed with anti-tubulin (lower right panel) and anti-Hsp60 Abs (lower left panel), respectively. Blots are representative of three independent experiments.
# Both caspase-9 (mitochondria-dependent) and caspase-8 (mitochondria-independent) are known to proteolytically cleave and activate a common downstream effector capsase-3, resulting in PARP cleavage. […] Total protein lysates were subjected to SDS-PAGE analysis. Immunoblot analysis of the lysates was performed with anti-PARP (upper panel) or anti-caspase-3 (lower panel) Abs. ‘FL’ indicates ‘full length’ and ‘CF’ denotes cleaved fragment.
# Immunoblot analysis was performed using antibodies to cytochrome-c, Smac, Caspase-8, -9, or -3 (Cell Signaling, Beverly, Mass.), tubulin (Sigma, St. Louis, Mo.), PARP, Hsp60, or Bax (BD Bioscience Pharmingen, San Diego, Calif.). Blots were developed by enhanced chemiluminesence (ECL; Amersham, Arlington Heights, Ill.).
# MM.1S cells [5] = test: cells; details: for viable cells: FIG. 12D
# From the text: MM.1S cells were also transiently transfected using Cell line Nucleofecto kit V, according to the manufacturer's instructions (Amaxa Biosystems, Germany), with vector alone, DN-caspase-8, DN-caspase-9, or DN-FADD and cotransfected with vector containing green fluorescence protein (GFP) alone.
# It was next determined whether inhibition of an upstream signaling pathway that leads to caspase-8 activation affects the response to the compound of formula (II) (X=Cl) or Bortezomib. The Fas-associated death domain (FADD) protein is an important part of the deathinducing signaling complexes (DISCs) that assemble upon engagement of TNF receptor family members, such as Fas, resulting in proteolytic processing and autoactivation of pro-caspase-8. Since both the compound of formula (II) (X=Cl) and Bortezomib trigger caspase-8 activation, the role of FADD during this event in MM cells was evaluated using DN-FADD.
# [6] = system: Mouse embryonic fibroblast (MEFs); test: MTT viability of MEFs with wild-type or knock-out Bax; type: cell-based; details: 48 h; FIG. 12F
# From the text: Results are mean±SD of three independent experiments (P<0.05).
# [7] = system: Lymphocytes from five healthy donors; test: MTT cytotoxicity on normal lymphocytes
# From the text: Bortezomib therapy is associated with toxicity in patients. […] Results are the mean±SD of three independent experiments.
smiles,measurement,setting,value
CC12OC(=O)C1(C(O)C1C=CCCC1)NC(=O)C2CCCl (stereo not drawn) [compound of formula (II) (X=Cl)],pIC50,[1],7.62 to 8.15
same,apoptosis by DNA fragmentation assay,patient MM-derived BMSCs,does not induce apoptosis
same,median cell viability,"MM.1S cells [2]; agent + rhIL-6 (10 ng/ml), 24 h (compound 7 nM; Dex 0.5 μM)",51.2±3.2%
same,median cell viability,"MM.1S cells [2]; agent alone, 24 h (compound 7 nM; Dex 0.5 μM)",47±2.3%
same,median cell viability,"MM.1S cells [2]; compound 7 nM + rhIGF-I (50 ng/ml), 24 h",50.3%±2.0
same,increased survival of Bcl-2 transfectants,"[3]; Bcl-2- versus vector-transfected, FIG. 14A",11%
same,viability,"[3]; Bcl-2-transfected cells, FIG. 14A",50%±2.6
same,less cell death in Bcl2-transfected cells compared to empty vector-transfected MM.1S cells,[3]; FIG. 9,15±1.1%
same,effect of Bcl-2 overexpression on induced caspase-9 cleavage,[3]; FIG. 14B,minimally affected
same,cell viability of Bcl2-transfected MM.1S cells,"[3]; dose-dependent, FIG. 9",significantly decreases cell viability
same,viability,"[3]; vector-transfected cells, FIG. 14A",39%±1.5
same,"mitochondrial membrane potential (ΔΨm), CMXRos","MM.1S cells [4]; 12 h, serum starved MM.1S, FIG. 11A",decreases ΔΨm
same,"Superoxide (O2−) production, dihydroethidium","MM.1S cells [4]; 12 h, FIG. 11B",triggers O2^− production
same,caspase-3 and PARP cleavage,"MM.1S cells [4]; 24 h, MM.1S or MM.1R, FIG. 11F",triggers caspase-3 and PARP cleavage
same,mitochondrial versus cytosolic cyto-c and smac,"MM.1S cells [4]; 24 h, FIG. 11C",triggers a decrease in mitochondrial cyto-c
same,caspase-9 cleavage,"MM.1S cells [4]; 24 h, FIG. 11D",induces proteolytic cleavage of caspase-9
same,caspase-8 activation,"MM.1S cells [4]; 24 h, FIG. 11E",activates caspase-8
same,viable cells,MM.1S cells [5]; DN-FADD-transfected MM.1S cells,76%±5.1
same,effect of caspase-8 blockade on triggered cell death,"MM.1S cells [5]; IETD-fmk, FIG. 12A",significant decrease in cell death
same,effect of caspase-9 inhibition on decreased viability,"MM.1S cells [5]; LEHD-FMK, FIG. 12A",only moderately blocked
same,pIC50,"MM.1S cells [5]; MM.1S cells, concentration used for treatment",8.15
same,survival of DN-caspase-8-transfected compared to DN-caspase-9-transfected cells,"MM.1S cells [5]; treated at IC50, FIG. 12B",markedly increased survival
same,viable cells,MM.1S cells [5]; vector-transfected MM.1S cells,42%±2.0
same,effect of caspase-3 inhibition on induced apoptosis,"MM.1S cells [5]; z-VAD-fmk, FIG. 12A",markedly abrogates
same,cell viability in Bax (WT) and Bax (knock-out) MEFs,[6],decreases viability in both Bax (WT) and Bax (knock-out)
same,viability of normal lymphocytes,"[7]; 72 h, 0-20 nM (compound even at 20 nM; Bortezomib at 6-10 nM), FIG. 13",does not significantly decrease the survival of normal lymphocytes
same,effect on normal lymphocytes at the IC50 of patient MM cells,[7]; in words,no effect on normal lymphocytes
